Results reported in ChEMBL document CHEMBL5291721, “A preclinical secondary pharmacology resource illuminates target-adverse drug reaction associations of marketed drugs” (Nat Commun, 2023).

How the values were obtained:
[1] = biological target: T1, Adenosine receptor A1 (Homo sapiens, UniProt P30542)
T1 sequence (P30542 whole entry): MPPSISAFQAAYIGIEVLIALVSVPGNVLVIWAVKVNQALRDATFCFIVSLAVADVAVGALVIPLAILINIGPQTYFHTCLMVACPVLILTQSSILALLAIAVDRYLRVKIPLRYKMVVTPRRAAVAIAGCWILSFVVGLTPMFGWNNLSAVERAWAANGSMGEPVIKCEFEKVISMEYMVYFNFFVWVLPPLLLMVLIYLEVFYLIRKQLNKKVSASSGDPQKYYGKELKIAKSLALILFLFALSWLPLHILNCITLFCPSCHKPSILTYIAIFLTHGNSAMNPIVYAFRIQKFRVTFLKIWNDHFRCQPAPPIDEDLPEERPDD

[2] = biological target: T2, Amine oxidase [flavin-containing] A (Homo sapiens, UniProt P21397); assay type: functional
T2 sequence (P21397 whole entry): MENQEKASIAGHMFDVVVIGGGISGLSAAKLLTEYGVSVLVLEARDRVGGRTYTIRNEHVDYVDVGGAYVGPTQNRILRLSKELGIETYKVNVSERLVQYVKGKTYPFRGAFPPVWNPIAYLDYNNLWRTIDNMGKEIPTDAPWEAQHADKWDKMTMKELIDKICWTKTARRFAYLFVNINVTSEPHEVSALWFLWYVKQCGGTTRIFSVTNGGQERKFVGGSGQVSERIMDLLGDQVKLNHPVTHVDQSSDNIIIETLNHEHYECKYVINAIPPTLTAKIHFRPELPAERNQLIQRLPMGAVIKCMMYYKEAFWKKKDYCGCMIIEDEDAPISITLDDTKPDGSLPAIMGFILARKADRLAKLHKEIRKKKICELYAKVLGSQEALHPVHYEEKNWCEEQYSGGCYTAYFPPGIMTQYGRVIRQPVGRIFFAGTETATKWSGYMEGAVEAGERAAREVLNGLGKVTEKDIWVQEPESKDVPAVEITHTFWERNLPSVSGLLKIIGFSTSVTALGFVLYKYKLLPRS

[3] = biological target: Histamine H3 receptor (Homo sapiens, UniProt Q9Y5N1)
[4] = biological target: Delta-type opioid receptor (Homo sapiens, UniProt P41143)
[5] = biological target: T3, 5-hydroxytryptamine receptor 2C (Homo sapiens, UniProt P28335)
T3 sequence (P28335 whole entry): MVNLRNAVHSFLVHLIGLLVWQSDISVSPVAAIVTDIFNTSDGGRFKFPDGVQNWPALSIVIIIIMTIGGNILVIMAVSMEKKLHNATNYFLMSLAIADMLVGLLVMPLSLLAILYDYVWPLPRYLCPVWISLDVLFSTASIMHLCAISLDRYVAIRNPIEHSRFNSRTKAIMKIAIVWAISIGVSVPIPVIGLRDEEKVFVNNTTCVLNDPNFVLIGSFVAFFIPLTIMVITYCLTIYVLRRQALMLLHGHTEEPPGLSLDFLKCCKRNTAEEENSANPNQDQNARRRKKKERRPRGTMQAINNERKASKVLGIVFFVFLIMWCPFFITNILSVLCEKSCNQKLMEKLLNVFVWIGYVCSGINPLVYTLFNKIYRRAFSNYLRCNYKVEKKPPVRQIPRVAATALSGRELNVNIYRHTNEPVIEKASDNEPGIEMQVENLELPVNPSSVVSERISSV

[6] = biological target: Sodium-dependent dopamine transporter (Homo sapiens, UniProt Q01959)
[7] = biological target: Cannabinoid receptor 1 (Homo sapiens, UniProt P21554)
Note: assay procedure not described here.

Sequence of Cannabinoid receptor 1 (P21554 whole entry): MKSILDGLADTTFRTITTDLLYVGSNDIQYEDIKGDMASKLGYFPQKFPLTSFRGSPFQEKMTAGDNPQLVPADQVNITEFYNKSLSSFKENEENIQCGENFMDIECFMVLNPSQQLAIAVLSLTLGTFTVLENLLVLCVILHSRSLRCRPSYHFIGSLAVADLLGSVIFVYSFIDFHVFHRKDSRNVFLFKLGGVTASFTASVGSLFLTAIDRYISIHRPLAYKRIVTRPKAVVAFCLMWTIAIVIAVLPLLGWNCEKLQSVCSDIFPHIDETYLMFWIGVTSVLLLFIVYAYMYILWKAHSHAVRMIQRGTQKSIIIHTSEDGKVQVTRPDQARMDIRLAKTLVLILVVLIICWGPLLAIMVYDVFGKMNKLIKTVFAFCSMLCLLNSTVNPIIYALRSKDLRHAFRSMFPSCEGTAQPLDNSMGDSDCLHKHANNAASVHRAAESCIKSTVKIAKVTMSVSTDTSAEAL
Sequence of Delta-type opioid receptor (P41143 whole entry): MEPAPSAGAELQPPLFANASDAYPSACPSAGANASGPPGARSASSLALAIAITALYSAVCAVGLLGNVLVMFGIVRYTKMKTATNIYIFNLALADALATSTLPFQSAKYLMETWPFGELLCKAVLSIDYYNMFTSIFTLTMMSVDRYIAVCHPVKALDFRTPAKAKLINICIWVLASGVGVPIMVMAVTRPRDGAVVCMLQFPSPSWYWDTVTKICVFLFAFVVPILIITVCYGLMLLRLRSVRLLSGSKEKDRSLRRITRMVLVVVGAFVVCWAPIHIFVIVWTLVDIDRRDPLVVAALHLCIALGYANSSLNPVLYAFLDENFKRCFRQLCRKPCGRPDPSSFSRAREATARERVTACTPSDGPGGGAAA
Sequence of Histamine H3 receptor (Q9Y5N1 whole entry): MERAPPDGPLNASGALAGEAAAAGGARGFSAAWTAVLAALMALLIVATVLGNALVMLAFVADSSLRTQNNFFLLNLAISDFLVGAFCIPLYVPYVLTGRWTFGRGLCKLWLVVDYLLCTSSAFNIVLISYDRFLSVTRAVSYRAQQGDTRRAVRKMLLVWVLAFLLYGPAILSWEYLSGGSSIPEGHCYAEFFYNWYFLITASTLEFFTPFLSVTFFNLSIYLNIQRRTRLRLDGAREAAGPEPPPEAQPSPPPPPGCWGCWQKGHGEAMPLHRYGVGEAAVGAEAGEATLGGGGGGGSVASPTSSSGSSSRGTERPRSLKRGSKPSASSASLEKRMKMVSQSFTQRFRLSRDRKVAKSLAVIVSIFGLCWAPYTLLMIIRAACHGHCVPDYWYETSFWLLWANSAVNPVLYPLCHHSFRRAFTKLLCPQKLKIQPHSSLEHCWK
Sequence of Sodium-dependent dopamine transporter (Q01959 whole entry): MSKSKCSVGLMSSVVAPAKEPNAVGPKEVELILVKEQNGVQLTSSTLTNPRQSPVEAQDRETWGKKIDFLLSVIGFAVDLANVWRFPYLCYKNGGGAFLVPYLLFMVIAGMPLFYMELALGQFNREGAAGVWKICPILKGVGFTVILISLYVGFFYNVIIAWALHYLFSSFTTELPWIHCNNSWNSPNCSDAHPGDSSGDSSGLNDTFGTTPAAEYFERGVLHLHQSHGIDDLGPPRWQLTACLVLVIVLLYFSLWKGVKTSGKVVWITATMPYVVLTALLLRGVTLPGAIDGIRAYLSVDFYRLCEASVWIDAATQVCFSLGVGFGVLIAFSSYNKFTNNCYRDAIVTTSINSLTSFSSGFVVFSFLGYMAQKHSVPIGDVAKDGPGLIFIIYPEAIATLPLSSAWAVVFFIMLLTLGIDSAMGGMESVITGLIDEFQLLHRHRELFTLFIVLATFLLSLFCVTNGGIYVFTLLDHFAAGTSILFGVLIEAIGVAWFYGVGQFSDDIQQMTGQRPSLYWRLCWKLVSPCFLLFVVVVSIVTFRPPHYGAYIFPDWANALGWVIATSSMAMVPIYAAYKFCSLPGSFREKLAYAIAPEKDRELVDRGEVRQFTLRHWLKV

| SMILES | AC50 [1] | AC50 [2] | AC50 [3] | AC50 [4] | AC50 [5] | AC50 [6] | AC50 [7] |
| --- | --- | --- | --- | --- | --- | --- | --- |
| C[C@@H](NCCCc1cccc(C(F)(F)F)c1)c1cccc2ccccc12 | > 30 µM | > 30 µM | > 30 µM | > 30 µM | 0.73 µM | 6.4 µM | – |
| COc1ccc(CC2c3cc(OC)c(OC)cc3CC[N+]2(C)CCC(=O)OCCCCCOC(=O)CC[N+]2(C)CCc3cc(OC)c(OC)cc3C2Cc2ccc(OC)c(OC)c2)cc1OC (stereo not drawn) | > 30 µM | > 30 µM | > 30 µM | > 30 µM | 6.3 µM | > 30 µM | > 30 µM |
| CCN1CCN(Cc2ccc(Nc3ncc(F)c(-c4cc(F)c5nc(C)n(C(C)C)c5c4)n3)nc2)CC1 [ABEMACICLIB] | > 30 µM | > 30 µM | 0.31 µM | > 30 µM | > 30 µM | > 30 µM | – |
| COc1ccccc1Oc1c(NS(=O)(=O)c2ccc(C(C)(C)C)cc2)nc(-c2ncccn2)nc1OCCO [BOSENTAN] | > 30 µM | > 10 µM | > 10 µM | > 30 µM | > 30 µM | > 30 µM | > 10 µM |
| CC(C(=O)O)c1ccc2c(c1)[nH]c1ccc(Cl)cc12 (stereo not drawn) [CARPROFEN] | > 30 µM | > 10 µM | > 30 µM | > 30 µM | > 30 µM | > 30 µM | > 10 µM |
| COc1ccccc1OCCNCC(O)COc1cccc2[nH]c3ccccc3c12 (stereo not drawn) [CARVEDILOL] | > 30 µM | > 10 µM | > 30 µM | > 10 µM | 1.1 µM | 4.53 µM | > 10 µM |
| O=C1CCc2cc(OCCCCc3nnnn3C3CCCCC3)ccc2N1 [CILOSTAZOL] | > 30 µM | > 30 µM | > 30 µM | > 30 µM | > 30 µM | > 30 µM | > 10 µM |
| C[C@@H](Oc1cc(-c2cnn(C3CCNCC3)c2)cnc1N)c1c(Cl)ccc(F)c1Cl [CRIZOTINIB] | > 30 µM | 30 µM | – | > 30 µM | > 30 µM | 7.8 µM | > 10 µM |
| O=C1CN(/N=C/c2ccc(-c3ccc([N+](=O)[O-])cc3)o2)C(O)=N1 [DANTROLENE] | 25 µM | > 10 µM | – | > 30 µM | > 30 µM | > 10 µM | > 10 µM |
| CN(C)CC[C@@H](c1ccc(Cl)cc1)c1ccccn1 [DEXCHLORPHENIRAMINE] | > 30 µM | > 30 µM | 6.3 µM | > 30 µM | 28 µM | – | – |
| CC(C)N(CCC(C(N)=O)(c1ccccc1)c1ccccn1)C(C)C (stereo not drawn) [DISOPYRAMIDE] | > 30 µM | > 10 µM | > 30 µM | > 30 µM | > 30 µM | > 30 µM | > 10 µM |
| C[C@H]1c2cccc(O)c2C(=O)C2=C(O)[C@]3(O)C(=O)C(C(N)=O)=C(O)[C@@H](N(C)C)[C@@H]3[C@@H](O)[C@@H]21 [DOXYCYCLINE] | 24.2 µM | > 10 µM | > 10 µM | > 30 µM | > 30 µM | > 10 µM | > 10 µM |
| C[C@]12C=CC(=O)N[C@@H]1CC[C@@H]1[C@@H]2CC[C@]2(C)[C@@H](C(=O)Nc3cc(C(F)(F)F)ccc3C(F)(F)F)CC[C@@H]12 [DUTASTERIDE] | > 10 µM | > 10 µM | – | > 30 µM | > 30 µM | > 10 µM | > 10 µM |
| CN1C[C@H](C(=O)N[C@]2(C)O[C@@]3(O)[C@@H]4CCCN4C(=O)[C@H](Cc4ccccc4)N3C2=O)C=C2c3cccc4[nH]cc(c34)C[C@H]21 [ERGOTAMINE] | > 30 µM | > 30 µM | > 30 µM | > 30 µM | 3.8 µM | > 30 µM | – |
| CN(C)CCC[C@@]1(c2ccc(F)cc2)OCc2cc(C#N)ccc21 [ESCITALOPRAM] | > 30 µM | > 30 µM | > 30 µM | > 30 µM | – | – | – |
| CN(CC1(C)CCCO1)S(=O)(=O)c1ccc(Cl)c(S(N)(=O)=O)c1 (stereo not drawn) [MEFRUSIDE] | – | > 30 µM | – | > 30 µM | > 30 µM | – | – |
| C=C[C@H]1C[N@@]2CC[C@H]1C[C@@H]2[C@@H](O)c1ccnc2ccc(OC)cc12 [QUINIDINE] | > 30 µM | > 10 µM | > 10 µM | > 30 µM | > 10 µM | 9.56 µM | > 10 µM |
| CO[C@H]1/C=C/O[C@@]2(C)Oc3c(C)c(O)c4c(O)c(c(/C=N/N5CCN(C)CC5)c(O)c4c3C2=O)NC(=O)/C(C)=C\C=C\[C@H](C)[C@H](O)[C@@H](C)[C@@H](O)[C@@H](C)[C@H](OC(C)=O)[C@@H]1C [RIFAMPIN] | 18.8 µM | > 30 µM | 25 µM | 17 µM | – | 20 µM | > 30 µM |
| CC(N)C12CC3CC(CC(C3)C1)C2 (stereo not drawn) [RIMANTADINE] | > 10 µM | > 10 µM | – | > 30 µM | > 30 µM | > 10 µM | > 10 µM |
| CN(C)CCc1c[nH]c2ccc(Cn3cncn3)cc12 [RIZATRIPTAN] | > 30 µM | > 30 µM | > 10 µM | > 30 µM | – | > 10 µM | > 10 µM |
| CC(C)c1nc(N(C)S(C)(=O)=O)nc(-c2ccc(F)cc2)c1/C=C/[C@@H](O)C[C@@H](O)CC(=O)O [ROSUVASTATIN] | > 30 µM | > 30 µM | > 30 µM | > 30 µM | > 30 µM | > 30 µM | – |
| N[C@@H](CC(=O)N1CCn2c(nnc2C(F)(F)F)C1)Cc1cc(F)c(F)cc1F [SITAGLIPTIN] | > 30 µM | > 30 µM | > 30 µM | > 30 µM | > 30 µM | > 30 µM | > 10 µM |
| Nc1ccc(S(=O)(=O)Nc2nccs2)cc1 [SULFATHIAZOLE] | > 30 µM | > 10 µM | > 10 µM | > 30 µM | > 30 µM | > 10 µM | > 10 µM |
| O=C1C(CC[S+]([O-])c2ccccc2)C(=O)N(c2ccccc2)N1c1ccccc1 (stereo not drawn) [SULFINPYRAZONE] | > 10 µM | > 10 µM | – | > 30 µM | > 30 µM | > 10 µM | > 10 µM |
| CCN(CC)CCNC(=O)c1c(C)[nH]c(/C=C2\C(=O)Nc3ccc(F)cc32)c1C [SUNITINIB] | 6.4 µM | > 30 µM | 0.88 µM | 1.7 µM | 2.25 µM | – | – |
| CC(C)(C)NCC(O)c1cc(O)cc(O)c1 (stereo not drawn) [TERBUTALINE] | > 30 µM | – | > 30 µM | – | – | > 30 µM | – |
| CC(S)C(=O)NCC(=O)O (stereo not drawn) [TIOPRONIN] | > 30 µM | > 30 µM | > 30 µM | > 30 µM | > 30 µM | > 30 µM | – |
| C[C@H](CCC(=O)O)[C@H]1CC[C@H]2[C@@H]3[C@@H](O)C[C@@H]4C[C@H](O)CC[C@]4(C)[C@H]3CC[C@]12C [URSODIOL] | > 30 µM | > 30 µM | > 30 µM | > 30 µM | > 30 µM | > 30 µM | – |
